# Assays:
# [1] = system: airway smooth muscle cells; experiment: Cytotoxicity: lactate dehydrogenase activity in cell supernatants; type: cell-based, rat; conditions: confluent cells incubated 24 hours; compared with DMSO vehicle (Figure 4B)
# Protocol: To study the effect of DHEA and 16α-BrEA on activation of AP-1, a secondary response important in cellular growth and proliferation (Angel and Karin, (1991), supra) confluent monolayers of airway smooth muscle in 75-cm^2 Petri dishes were growth arrested for 24 hours in 0.5% FBS and DMEM and pretreated 2 hours with DHEA, 16α-BrEA or DMSO vehicle. Cells were then stimulated with 10% FBS in DMEM for 6 hours, nuclear protein was harvested, and electrophoretic mobility shift assays were performed as described below to determine if treatment with DHEA and 16α-BrEA impaired DNA binding of AP-1. Measurement of Cytotoxicity and Apoptosis. To assess for cytotoxicity, DHEA or 16α-BrEA were added to wells of airway smooth muscle cells previously grown to confluence in DMEM and 10% FBS. After 24 hours, media was microfuged 5 minutes and supernatant was assayed for lactate dehydrogenase activity using a commercially available assay (DG-1340K from Sigma). Cells were washed twice in DPBS and exposed to trypan blue dye (0.04% in Hanks' balanced salt solution). Cell counts were performed in five random fields using a 0.01-cm^2 ocular grid to quantitate the average number of damaged or dead cells that accumulated dye. […]
# p21^ras = experiment: Immunoblot of p21ras in membranes of cultured airway smooth muscle cells; type: cell-based, rat; conditions: 10% FBS + 10 µM, 24 hours (Figure 6B)
# Protocol: To determine if 16α-bromoepiandrosterone reduced cellular proliferation by interfering with mevalonic acid synthesis, cells were stimulated with FBS and grown in the presence or absence of 16α-BrEA, with or without addition of 6 mM DL-mevalonic acid lactone to growth medium. After 36 hours growth was measured by MTT reduction. To evaluate whether isoprenylation and membrane localization of Ras was impaired, confluent cells on 75-cm^2 Petri dishes were growth arrested for 24 hours in 0.5% FBS and DMEM with and without 16α-BrEA or DMSO vehicle. Some dishes were then stimulated 30 minutes with 10% FBS in DMEM. Cells were lysed, membranes were isolated and immunoblotting was performed as described below to determine if treatment with DHEA and 16α-BrEA depleted p21^ras.
# To determine if DHEA or its analogs induced programmed cell death, confluent cultures in 6 well plastic plates were treated with 50 or 250 µM DHEA, 10 or 50 µM 16α-BrEA, or vehicle (25 µl DMSO). After 2 hours cells were washed twice with DPBS and scraped on ice into 1.5 ml microfuge tubes and centrifuged 250 g for 5 minutes at 4°C. […] The linear increase in absorbance at 340 nm was monitored at 25°C for 300 seconds. Activity was expressed as units/mg protein, where 1.0 unit will oxidase 1.0 µmole of G6P to 6-phospho-D-gluconate per min in the presence of NADP. Protein was measured using the BCA protein assay (Rockford, IL). […]
structure (smiles),measurement,setting,value
"C[C@]12CC[C@H](O)C[C@@H]1CC[C@@H]1[C@@H]2CC[C@]2(C)C(=O)[C@H](Br)C[C@@H]12 [16α-BrEA, 16α-bromoepiandrosterone]",LDH activity in supernatant,[1],does not increase LDH activity
same,p21^ras in membranes of cultured airway smooth muscle cells,p21^ras,does not deplete p21^ras

# — EP0934745B1, “Use of androsterone derivatives for inhibiting DNA binding of ap-1 and airway smooth muscle proliferation” (CHARLOTTE-MECKLENBURG HOSPITAL doing business as Carolinas …, priority 1998, dated 1999)
